Measurements: US20070149456A1, “Epithelial sodium channel inhibiting agents and uses therefor” (University of Pittsburgh, priority 2005, published 2007)
pIC50, pKi: −log10 of the molar value. Several values for one entry are separate records, joined by “and”; a condition that tells them apart may be missing. Equal entries are not always repeated. Entries after “also recorded” stand apart in the source; their conditions may differ. Where two headings read alike, the source gives them in different places.

Experiments:
[1] = molecular target: T1, endogenous ENaC in mpkCCDc14 cells (Mus musculus, UniProt Q61180+Q9WU38+Q9WU39); assay: Amiloride-sensitive short circuit current in mpkCCDc14 monolayers, Ussing chamber; assay type: cell-based; conditions: for inhibition of amiloride sensitive short circuit currents: mpkCCDc14, increasing concentrations of peptide; for pKi: mpkCCDc14 cells; for inhibition of transepithelial Na+ transport: peptide 3 μM in apical chamber; for reversibility of inhibition on washout: peptide 3 μM
T1 construct: endogenous ENaC in a mouse cortical collecting duct (mpkCCDc14) cell line; endogenous in cells; host or cells: mpkCCDc14 mouse cortical collecting duct cell line
T1 sequence (Q61180 1-205): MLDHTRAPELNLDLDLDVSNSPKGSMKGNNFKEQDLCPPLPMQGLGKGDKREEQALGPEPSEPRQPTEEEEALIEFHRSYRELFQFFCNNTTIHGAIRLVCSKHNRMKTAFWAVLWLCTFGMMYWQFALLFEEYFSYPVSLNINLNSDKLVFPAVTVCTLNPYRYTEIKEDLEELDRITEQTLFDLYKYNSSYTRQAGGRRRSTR
T1 sequence (Q61180 232-699): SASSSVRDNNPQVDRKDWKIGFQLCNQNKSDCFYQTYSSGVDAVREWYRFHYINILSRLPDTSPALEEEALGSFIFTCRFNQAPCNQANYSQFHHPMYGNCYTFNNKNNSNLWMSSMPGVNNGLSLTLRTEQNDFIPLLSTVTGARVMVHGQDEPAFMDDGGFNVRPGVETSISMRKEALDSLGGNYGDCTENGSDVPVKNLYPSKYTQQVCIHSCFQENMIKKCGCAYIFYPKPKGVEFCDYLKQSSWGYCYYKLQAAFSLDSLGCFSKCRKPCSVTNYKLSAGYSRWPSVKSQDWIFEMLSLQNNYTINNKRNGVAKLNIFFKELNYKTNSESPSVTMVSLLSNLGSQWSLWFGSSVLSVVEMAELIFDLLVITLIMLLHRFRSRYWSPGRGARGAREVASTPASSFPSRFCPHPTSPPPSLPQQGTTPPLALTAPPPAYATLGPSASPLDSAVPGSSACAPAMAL
T1 sequence (Q9WU38 whole entry): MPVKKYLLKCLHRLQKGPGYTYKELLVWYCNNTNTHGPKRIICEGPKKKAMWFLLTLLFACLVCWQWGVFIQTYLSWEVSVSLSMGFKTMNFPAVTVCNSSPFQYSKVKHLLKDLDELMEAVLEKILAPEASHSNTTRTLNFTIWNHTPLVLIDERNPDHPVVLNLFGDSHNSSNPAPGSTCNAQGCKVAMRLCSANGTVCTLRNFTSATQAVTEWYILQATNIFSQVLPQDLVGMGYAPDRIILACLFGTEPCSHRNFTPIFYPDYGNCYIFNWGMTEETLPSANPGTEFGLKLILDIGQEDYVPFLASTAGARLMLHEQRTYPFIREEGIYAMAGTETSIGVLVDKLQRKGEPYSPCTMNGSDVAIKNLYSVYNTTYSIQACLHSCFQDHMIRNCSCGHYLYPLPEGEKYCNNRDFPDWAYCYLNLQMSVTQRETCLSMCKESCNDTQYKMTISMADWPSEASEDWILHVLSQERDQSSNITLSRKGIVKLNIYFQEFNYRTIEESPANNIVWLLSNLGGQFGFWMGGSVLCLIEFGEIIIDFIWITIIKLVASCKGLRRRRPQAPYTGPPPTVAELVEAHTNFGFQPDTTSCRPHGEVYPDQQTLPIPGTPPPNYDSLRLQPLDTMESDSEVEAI
T1 sequence (Q9WU39 1-143): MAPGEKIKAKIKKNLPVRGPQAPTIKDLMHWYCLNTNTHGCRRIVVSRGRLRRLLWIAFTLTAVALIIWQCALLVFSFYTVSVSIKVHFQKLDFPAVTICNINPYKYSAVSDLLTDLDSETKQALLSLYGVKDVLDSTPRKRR
T1 sequence (Q9WU39 187-655): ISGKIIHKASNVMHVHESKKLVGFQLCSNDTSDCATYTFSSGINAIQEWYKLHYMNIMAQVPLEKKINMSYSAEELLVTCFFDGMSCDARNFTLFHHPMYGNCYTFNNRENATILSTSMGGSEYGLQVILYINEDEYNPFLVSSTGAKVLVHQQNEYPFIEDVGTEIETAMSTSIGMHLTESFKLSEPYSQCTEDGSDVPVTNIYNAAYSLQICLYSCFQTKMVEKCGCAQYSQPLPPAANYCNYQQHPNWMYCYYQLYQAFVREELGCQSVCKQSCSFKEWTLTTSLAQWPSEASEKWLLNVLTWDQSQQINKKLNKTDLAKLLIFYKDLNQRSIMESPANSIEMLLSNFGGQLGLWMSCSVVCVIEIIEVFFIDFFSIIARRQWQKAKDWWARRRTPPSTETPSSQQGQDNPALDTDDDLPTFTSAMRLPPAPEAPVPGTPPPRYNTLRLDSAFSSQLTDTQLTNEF
Description: mpkCCDc14 Cell Culture—mpkCCDc14 cells were grown as previously reported (Bens, M., Vallet, V., Cluzeaud, F., Pascual-Letallec, L., Kahn, A., Rafestin-Oblin, M. E., Rossier, B. C., and Vandewalle, A. (1999), Corticosteroid-dependent sodium transport in a novel immortalized mouse collecting duct principal cell line, J. Am. Soc. Nephrol. 10, 923-934). mpkCCDc14 cells were subcultured onto permeable filter supports coated with collagen (0.4-μm pore size, 1-cm^2 surface area, Snapwell filters; Coming Inc., Acton, Mass.). Cells were kept on filters for at least 4 days in defined medium (Bens, M., Vallet, V., Cluzeaud, F., Pascual-Letallec, L., Kahn, A., Rafestin-Oblin, M. E., Rossier, B. C., and Vandewalle, A. (1999) J. Am. Soc. Nephrol. 10, 923-934 30) that was changed every second day. At least 24 h prior to the experiments, the culture medium was replaced with a minimal medium (without drugs or hormones) that contained only Dulbecco's modified Eagle's medium and Ham's F-12.
Short Circuit Current Measurements—Cell culture inserts were mounted in modified Ussing chambers (Harvard Apparatus, Holliston, Mass.), and the monolayers were continuously short-circuited with a voltage/current clamp system (Physiologic Instruments, San Diego, Calif.). A 2-mV bipolar pulse was applied periodically to measure the resistance of the monolayer. As previously described by Bridges et al. (Bridges, R. J., Newton, B. B., Pilewski, J. M., Devor, D. C., Poll, C. T., and Hall, R. L. (2001), Na+ transport in normal and CF human bronchial epithelial cells is inhibited by BAY 39-9437, Am. J. Physiol. 281, L16-L23 32, Na^+ transport in normal and CF human bronchial epithelial cells is inhibited by BAY 39-9437), the bath solution contained (in mM) 120 NaCl, 25 NaHCO3, 3.3 KH2PO4, 0.8 K2HPO4, 1.2 MgCl2, 1.2 CaCl2, and 10 glucose. The pH of this solution was 7.4 when gassed with a mixture of 95% O2-5% CO2 at 37° C.
(FIG. 6A) mpkCCDc14cells cultured on permeable membrane supports and mounted in a modified Ussing chamber were continuously short-circuited by a voltage clamp amplifier (Physiologic Instruments, San Diego, Calif.). Transepithelial resistance was monitored by applying a 4 mV bipolar pulse every 60 seconds. Where indicated, a 43 residue peptide corresponding to E144-K186 of mouse γ-ENaC (γ-peptide) was added to the apical chamber at a final concentration of 3 μM. […] Data presented as mean +/−standard error (n=8).
Vectors and Cell Culture—Wild-type, C-terminal and double epitope tagged mouse ENaC subunit cDNAs were previously described (Hughey, R. P., Mueller, G. M., Bruns, J. B., Kinlough, C. L., Poland, P. A., Harkleroad, K. L., Carattino, M. D., and Kleyman, T. R. (2003) J Biol Chem 278, 37073-37082 and Ahn, Y. J., Brooker, D. R., Kosari, F., Harte, B. J., Li, J., Mackler, S. A., and Kleyman, T. R. (1999), Cloning and functional expression of the mouse epithelial sodium channel, Am J Physiol 277, F121-129). The γ subunit mutations were generated in pcDNA3.1 (+) using a standard two-step PCR method. A cDNA clone (IMAGE #: 3600399) encoding full length mouse prostasin was obtained from Open Biosystems (Huntsville, Ala.) and sub-cloned into pcDNA3.1 (+) (Invitrogen, Carlsbad, Calif.). MDCK type 1 cells were a gift from Barry M. Gumbiner (Memorial Sloan-Kettering Cancer Center, New York) and were cultured as previously described (Lavelle, J. P., Negrete, H. O., Poland, P. A., Kinlough, C. L., Meyers, S. D., Hughey, R. P., and Zeidel, M. L. (1997), Low permeabilities of MDCK cell monolayers: a model barrier epithelium, Am J Physiol 273, F67-75). CCD (mpkCCDc14) cells were a gift from Alain Vandewalle (Institut National de la Santéet de la Recherche Médicale, Paris, France) and were cultured as previously described (Bens, M., Vallet, V., Cluzeaud, F., Pascual-Letallec, L., Kahn, A., Rafestin-Oblin, M. E., Rossier, B. C., and Vandewalle, A. (1999) J Am Soc Nephrol 10, 923-934).

αR205A,Δ206-231βγ = assay: Two-electrode voltage clamp in oocytes expressing channels lacking furin cleavage and the tract αAsp-206-Arg-231; assay type: cell-based, mouse; conditions: 1 μM α-26
Description: Oocyte Expression—cRNAs for α, β, γ mouse ENaC (wild-type and mutant) subunits and mouse prostasin were synthesized with T3 or T7 m-Message mMachineTM (Ambion, Austin, Tex.). Subunits carrying furin cleavage consensus site mutations and the corresponding wild-type subunits have amino-terminal HA and carboxyl-terminal V5 tags (Hughey, R. P., Bruns, J. B., Kinlough, C. L., Harkleroad, K. L., Tong, Q., Carattino, M. D., Johnson, J. P., Stockand, J. D., and Kleyman, T. R. (2004) J. Biol. Chem. 279, 18111-18114 18). Stage V-VI Xenopus laevis oocytes were pretreated with 1.5 mg/ml of type IV collagenase and injected with 0.5-2 ng of cRNA/subunit. Injected oocytes were maintained as previously reported (Carattino, M. D., Hill, W. G., and Kleyman, T. R. (2003), Arachidonic Acid Regulates Surface Expression of Epithelial Sodium Channels, J Biol. Chem. 278, 36202-36213 29).
Two-electrode Voltage Clamp—Two-electrode voltage clamp (TEV) was performed as previously described (Carattino, M. D., Hill, W. G., and Kleyman, T. R. (2003) J Biol. Chem. 278, 36202-36213 29). The extracellular solution (TEV solution) was (in mM): 110 NaCl, 2 KCl, 1.54 CaCl2, 10 HEPES, pH 7.4, or otherwise as indicated. […] ENaC-mediated whole cell Na^+ currents, at −60 mV,were defined as the amiloride-sensitive component of the current. […]

Ac-EAGSMRSTWEGTPPRFLNLIPLLVFNENEKGKARDFFTGRKRK-NH2 [γ-43]
increase of the IC50 for amiloride block ([1]; CCD cells, 3 μM γ-43): 60% | pIC50 ([1]; mouse CCD (mpkCCDc14), nonlinear curve fitting, read-out: IC50, inhibition of short circuit currents): 5.52 to 5.70 and 5.49 | inhibition of amiloride sensitive short circuit currents ([1]; listed as γ cleavage product): inhibited in a dose dependent manner | inhibition of amiloride sensitive short circuit currents ([1]; listed as γ-peptide): inhibited in a dose dependant manner | pKi ([1]; stated jointly for HBE and mpkCCDc14, read-out: apparent Ki, inhibition of endogenous ENaC activity): ~5.70 | inhibition of transepithelial Na+ transport [1]: rapidly inhibited; also recorded: marked inhibition | inhibition of transepithelial Na+ transport ([1]; listed as γ-peptide): marked inhibition | reversibility of inhibition on washout [1]: reversible; also recorded: relieved by washout | reversibility of inhibition on washout ([1]; listed as γ-peptide): reversibly inhibits; also recorded: relieved by wash out

Ac-DLRGALPHPLQRLRTPPPPNPARSAR-NH2 [α-26]
pKi ([1]; stated jointly for HBE or mpkCCDc14, read-out: Ki, block of endogenous ENaC activity): 4.00 to 4.30 | block of channels (αR205A,Δ206-231βγ): does not block; also recorded: not blocked
